Measured values published in patent US5234949A (Academic Pharmaceuticals, Inc., priority 1992, dated 1993).
Read-outs that look alike come from different tables or passages of the source.

Tests used:
Coronary Occlusion (Rat) = assay: Antiarrhythmic effects following coronary occlusion; format: in vivo
[1] = administered intravenously; cited from earlier work
dog = settings: in vivo; cited from earlier work

Compound	dose-dependent suppression of arrhythmias vs saline control group (Coronary Occlusion (Rat))	solution behaviour (0.05 to 0.1M acetate buffer, pH 3.5 to 3.8, about 25 to 50 mg/ml, room temperature, extended period)	solution behaviour (0.2M acetate buffer, same pH range, after cooling)	solution behaviour (pH above 4.0, room temperature)	solution behaviour (phosphate buffer, 0.1M, on cooling)	onset of action; hemodynamic and electrophysiological effect [1]	blood pressure effect (dog)	cardiac effect (dog)
CCCCc1oc2ccccc2c1C(=O)c1cc(I)c(OCCN(CC)CC)c(I)c1 [Amiodarone, 2-n-butyl-3-(3,5-diiodo-4-β-N-diethylaminoethoxybenzoyl) benzofuran]	significantly different than that seen with the saline control group	remains in solution	formed a gel after cooling	a gel formed at room temperature	gel formation occurred at all pH's	rapid onset of action causing profound hemodynamic and electrophysiological effect	–	–
Tween-80	–	–	–	–	–	–	causes hypotension	potent cardiac depressant
